Laboratory results reported in the supplement of paper PMC10307832.

What was measured:
Test in all cases: relative viability (nuclei count vs DMSO), 5 days (fraction); higher = more cells survive
NCI-H460 = tested on: NCI-H460
How it was run: (§1)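 Lung cancer cell lines in 1536-well plates got either a single drug or a fixed anchor-drug dose together with five library-drug doses (not always all listed) in √10 steps, by pin tool, on the day after seeding. Nuclei were counted after 5 days, and relative viability is the treated-to-vehicle ratio of nuclei counts. Values are medians of duplicate plates.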

NCI-H1755 = tested on: NCI-H1755
How it was run: as §1

NCI-H1793 = tested on: NCI-H1793
How it was run: as §1

HCC-366 = tested on: HCC-366
How it was run: as §1

NCI-H2228 = tested on: NCI-H2228
How it was run: as §1

NCI-H1651 = tested on: NCI-H1651
How it was run: as §1

LC-2-ad = tested on: LC-2-ad
How it was run: as §1

NCI-H2087 = tested on: NCI-H2087
How it was run: as §1

HCC-78 = tested on: HCC-78
How it was run: as §1

LOU-NH91 = tested on: LOU-NH91
How it was run: as §1

NCI-H2405 = tested on: NCI-H2405
How it was run: as §1

UMC-11 = tested on: UMC-11
How it was run: as §1

NCI-H1395 = tested on: NCI-H1395
How it was run: as §1

ChaGo-K-1 = tested on: ChaGo-K-1
How it was run: as §1

NCI-H3122 = tested on: NCI-H3122
How it was run: as §1

ABC-1 = tested on: ABC-1
How it was run: as §1

NCI-H1944 = tested on: NCI-H1944
How it was run: as §1

NCI-H2170 = tested on: NCI-H2170
How it was run: as §1

RERF-LC-KJ = tested on: RERF-LC-KJ
How it was run: as §1

PC-3 [JPC-3] = tested on: PC-3 [JPC-3]
How it was run: as §1

CAL-12T = tested on: CAL-12T
How it was run: as §1

LU99A = tested on: LU99A
How it was run: as §1

For `COc1nc(C)cnc1NS(=O)(=O)c1cccnc1-c1ccc(-c2nnco2)cc1` [Zibotentan] + O=C(c1cc(Cc2n[nH]c(=O)c3ccccc23)ccc1F)N1CCN(C(=O)C2CC2)CC1 [Olaparib] (partner 8 µM), the relative viability (NCI-H460; first compound 0.08 µM) was 0.42, the relative viability (NCI-H460; first compound 0.253 µM) was 0.346 and the relative viability (NCI-H460; first compound 0.8 µM) was 0.322. For the same compound, the relative viability (NCI-H460; first compound 2.53 µM) was 0.481, the relative viability (NCI-H1755; first compound 0.08 µM) was 0.893 and the relative viability (NCI-H1755; first compound 0.253 µM) was 0.846. The relative viability (NCI-H1755; first compound 0.8 µM) was 0.908, the relative viability (NCI-H1755; first compound 2.53 µM) was 0.907 and the relative viability (NCI-H1793; first compound 0.08 µM) was 0.998. It also gave a relative viability (NCI-H1793; first compound 0.253 µM) of 0.835, a relative viability (NCI-H1793; first compound 0.8 µM) of 0.796 and a relative viability (NCI-H1793; first compound 2.53 µM) of 0.957. It also gave a relative viability (HCC-366; first compound 0.08 µM) of 0.396, a relative viability (HCC-366; first compound 0.253 µM) of 0.34 and a relative viability (HCC-366; first compound 0.8 µM) of 0.342. The relative viability (HCC-366; first compound 2.53 µM) was 0.365, the relative viability (NCI-H2228; first compound 0.08 µM) was 0.658 and the relative viability (NCI-H2228; first compound 0.253 µM) was 0.573. It also gave a relative viability (NCI-H2228; first compound 0.8 µM) of 0.863, a relative viability (NCI-H2228; first compound 2.53 µM) of 0.924 and a relative viability (NCI-H1651; first compound 0.08 µM) of 0.172. The relative viability (NCI-H1651; first compound 0.253 µM) was 0.191, the relative viability (NCI-H1651; first compound 0.8 µM) was 0.19 and the relative viability (NCI-H1651; first compound 2.53 µM) was 0.184. For the same compound, the relative viability (LC-2-ad; first compound 0.08 µM) was 0.68, the relative viability (LC-2-ad; first compound 0.253 µM) was 0.682 and the relative viability (LC-2-ad; first compound 0.8 µM) was 0.721. The relative viability (LC-2-ad; first compound 2.53 µM) was 0.71, the relative viability (NCI-H2087; first compound 0.08 µM) was 0.658 and the relative viability (NCI-H2087; first compound 0.253 µM) was 0.668. It also gave a relative viability (NCI-H2087; first compound 0.8 µM) of 0.63, a relative viability (NCI-H2087; first compound 2.53 µM) of 0.48 and a relative viability (HCC-78; first compound 0.08 µM) of 0.949. It also gave a relative viability (HCC-78; first compound 0.253 µM) of 0.748, a relative viability (HCC-78; first compound 0.8 µM) of 0.719 and a relative viability (HCC-78; first compound 2.53 µM) of 0.736. For the same compound, the relative viability (LOU-NH91; first compound 0.08 µM) was 0.908, the relative viability (LOU-NH91; first compound 0.253 µM) was 0.854 and the relative viability (LOU-NH91; first compound 0.8 µM) was 0.999. It also gave a relative viability (LOU-NH91; first compound 2.53 µM) of 0.947, a relative viability (NCI-H2405; first compound 0.08 µM) of 0.878 and a relative viability (NCI-H2405; first compound 0.253 µM) of 0.843. It also gave a relative viability (NCI-H2405; first compound 0.8 µM) of 0.915, a relative viability (NCI-H2405; first compound 2.53 µM) of 0.892 and a relative viability (UMC-11; first compound 0.08 µM) of 0.321. For the same compound, the relative viability (UMC-11; first compound 0.253 µM) was 0.409, the relative viability (UMC-11; first compound 0.8 µM) was 0.44 and the relative viability (UMC-11; first compound 2.53 µM) was 0.438. It also gave a relative viability (NCI-H1395; first compound 0.08 µM) of 0.401, a relative viability (NCI-H1395; first compound 0.253 µM) of 0.486 and a relative viability (NCI-H1395; first compound 0.8 µM) of 0.436. The relative viability (NCI-H1395; first compound 2.53 µM) was 0.495, the relative viability (ChaGo-K-1; first compound 0.08 µM) was 0.393 and the relative viability (ChaGo-K-1; first compound 0.253 µM) was 0.396. It also gave a relative viability (ChaGo-K-1; first compound 0.8 µM) of 0.322, a relative viability (ChaGo-K-1; first compound 2.53 µM) of 0.393 and a relative viability (NCI-H3122; first compound 0.08 µM) of 0.625. The relative viability (NCI-H3122; first compound 0.253 µM) was 0.549, the relative viability (NCI-H3122; first compound 0.8 µM) was 0.581 and the relative viability (NCI-H3122; first compound 2.53 µM) was 0.608. For the same compound, the relative viability (ABC-1; first compound 0.08 µM) was 1, the relative viability (ABC-1; first compound 0.253 µM) was 0.527 and the relative viability (ABC-1; first compound 0.8 µM) was 0.8. It also gave a relative viability (ABC-1; first compound 2.53 µM) of 0.819, a relative viability (NCI-H1944; first compound 0.08 µM) of 0.417 and a relative viability (NCI-H1944; first compound 0.253 µM) of 0.369. For the same compound, the relative viability (NCI-H1944; first compound 0.8 µM) was 0.392, the relative viability (NCI-H1944; first compound 2.53 µM) was 0.406 and the relative viability (NCI-H2170; first compound 0.08 µM) was 0.571. For the same compound, the relative viability (NCI-H2170; first compound 0.253 µM) was 0.648, the relative viability (NCI-H2170; first compound 0.8 µM) was 0.522 and the relative viability (NCI-H2170; first compound 2.53 µM) was 0.568. It also gave a relative viability (RERF-LC-KJ; first compound 0.08 µM) of 0.832, a relative viability (RERF-LC-KJ; first compound 0.253 µM) of 0.802 and a relative viability (RERF-LC-KJ; first compound 0.8 µM) of 0.921. It also gave a relative viability (RERF-LC-KJ; first compound 2.53 µM) of 0.894, a relative viability (PC-3 [JPC-3]; first compound 0.08 µM) of 1.1 and a relative viability (PC-3 [JPC-3]; first compound 0.253 µM) of 1.09. For the same compound, the relative viability (PC-3 [JPC-3]; first compound 0.8 µM) was 1.21, the relative viability (PC-3 [JPC-3]; first compound 2.53 µM) was 1.14 and the relative viability (CAL-12T; first compound 0.08 µM) was 0.742. For the same compound, the relative viability (CAL-12T; first compound 0.253 µM) was 0.67, the relative viability (CAL-12T; first compound 0.8 µM) was 0.768 and the relative viability (CAL-12T; first compound 2.53 µM) was 0.664. It also gave a relative viability (LU99A; first compound 0.08 µM) of 0.269, a relative viability (LU99A; first compound 0.253 µM) of 0.259 and a relative viability (LU99A; first compound 0.8 µM) of 0.181. The relative viability (LU99A; first compound 2.53 µM) was 0.255.
